Assay results as given in patent publication US11773132B2, “Cyclic di-nucleotides as stimulator of interferon genes modulators” (Beijing Xuanyi PharmaSciences Co., Ltd., priority 2017, dated 2023).

Key:
Format in all cases: cell-based
Human STING [1] = biological target: T1, Human STING (Homo sapiens, UniProt Q86WV6, G230A/H232R/R293Q/R71H); assay: EC50 in THP1-Dual cells, IRF3 reporter (QUANTI-Luc); details: THP1 cell line, 24 h
T1 construct: host or cells: THP1-Dual cells (human monocytic reporter line)
Description: (§1) THP1-Dual cells (obtained from Invivogen) are maintained in RPM11640 medium with 100 µg/ml of Zeocin and 10 µg/ml of blasticidin at 37° C., 5% CO2, compounds were dissolved in sterile PBS (pH7.4) as 20 mM, 0.5×10^6 cells/ml of THP-1 Dual cells were incubated with indicated concentrations of a compound for 24 hours at 37° C., 5% CO2 incubator. QUANTI-Luc and QUANTI-Blue were prepared and used following the manufacturer's instructions. 10 ul of cell culture supernatant were mixed with QUANTI-Luc and immediately measured using Luminometer; 20 ul of supernatant were mixed with QUANTI-Blue, and incubated at 37° C. for 30 minutes, and read at OD620. EC50 was calculated using Prism with 4-parameter dose-response curve fitting (Table 3).

Human STING [2] = biological target: T1, Human STING; assay: EC50 in THP1-Dual cells, NF-kB reporter (QUANTI-Blue); details: THP1 cell line, 24 h, OD620, read-out: ECs50 NF-kB
Description: as §1

hSTING R232 [3] = biological target: T2, hSTING R232 (Homo sapiens, UniProt Q86WV6, H232R); assay: 293T-Dual hSTING R232 cells, IRF activation (Quanti-Blue); details: 293T-Dual hSTING R232 cell line, 24 h, OD 620 nm
T2 construct: host or cells: 293T-Dual hSTING R232 cells
Description: (§2) A test compound with a serial of dilution was prepared in complete medium, and 50 μL of the compound were added to the corresponding well, and incubated with the cells at 37° C. incubator for 24 hr.
To determine the effect on interferon regulatory factor (IRF) activation, 20 μL of cell culture supernatant was transferred into a fresh 96-well plate, 150 μL of Quanti-Blue was added to each well and incubated at 37° C. for 25 min. OD at 620 nm was recorded, and EC50 was calculated with 4 parameter logistic equation.

hSTING R232 [4] = biological target: T2, hSTING R232; assay: 293T-Dual hSTING R232 cells, interferon-β expression (Quanti-Luc); details: 293T-Dual hSTING R232 cell line, 24 h, read-out: IFNb EC50
Description: as §2
To evaluate the effect on interferon-β expression, 20 μL of cell culture supernatant were transferred into a fresh 96-half area-well white plate, 30 μL of Quanti-Luc were added to each well, and luminescence was measured immediately with a luminometer. Four parameter logistic equation was used to calculate EC50 (Table 4).

Human STING [5] = biological target: T1, Human STING; assay: THP1-Dual cell assay, IRF pathway reporter luminescence readout (QUANTI-Luc); details: THP1-Dual cells, 24 h, 30 μM, Table 2
Description: STING pathway activation by the compounds described herein was measured using THP-1 dual cells. These cells are THP1 monocytes that have been modified to be reporters for the IRF pathway, which is activated by STING agonists in these cells.
THP1-Dual cells (obtained from Invivogen) are maintained in growth medium with 100 ug/ml of Zeocin and 10 ug/ml of blasticidin at 37° C., 5% CO2, the cells were passaged every 3 days by inoculating 7×10^5 cells per ml and centrifuged at 1000 rpm for 5 min. Supernatant was removed and THP-1 Dual cells were re-suspended at 5×10^5 cells/ml in fresh pre-warmed growth medium.
[…]. 50 ul of Cell suspension (about 2.5×10^4 cells per well) was added in 384-well plate, which was incubated for 24 hours at 37° C., 5% CO2. QUANTI-Luc was prepared and used following the manufacturer's instructions, 5×10^3 cells per well were seeded in 40 μl medium and incubated overnight. Luminometer was set with the following parameters: 50u of injection, end-point measurement with a 4 second start time and 0.1 second reading time. 10 ul of THP-1 Dual cell culture medium per well was added into a 96-well white (opaque) plate, luminescence was measured and calculated.

T1 sequence (Q86WV6 whole entry R71H/G230A/H232R/R293Q): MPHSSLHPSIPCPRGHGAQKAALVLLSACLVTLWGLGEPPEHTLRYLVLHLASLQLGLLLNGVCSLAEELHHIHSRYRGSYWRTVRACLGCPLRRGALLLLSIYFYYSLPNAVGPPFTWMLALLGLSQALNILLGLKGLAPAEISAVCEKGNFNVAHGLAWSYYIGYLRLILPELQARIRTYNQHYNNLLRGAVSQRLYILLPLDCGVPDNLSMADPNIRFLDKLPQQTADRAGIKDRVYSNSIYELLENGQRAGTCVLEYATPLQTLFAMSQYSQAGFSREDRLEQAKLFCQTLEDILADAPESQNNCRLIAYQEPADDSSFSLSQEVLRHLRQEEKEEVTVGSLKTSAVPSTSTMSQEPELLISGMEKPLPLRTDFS
T2 sequence (Q86WV6 whole entry H232R): as the sequence (Q86WV6 whole entry R71H/G230A/H232R/R293Q) above, with H71R, A230G, Q293R counted along it

Row | Structure (SMILES) | EC50 (Human STING [1]) | EC50 (Human STING [2]) | EC50 (hSTING R232 [3]) | EC50 (hSTING R232 [4]) | Readout Average (Human STING [5]) | Readout n = 1 (Human STING [5]) | Readout n = 2 (Human STING [5])
1 | [BH3-][P+]1(O)OCC2OC(n3cnc4c(N)ncnc43)C(OP(=O)(O)OCC3OC(n4cnc5c(N)ncnc54)C(F)C3O1)C2F (single isomer, unassigned) [Compound K2] | 23 µM | 72.6 µM | 15 µM | 33 µM | – | – | –
2 | BP1(=O)OC[C@H]2O[C@@H](n3cnc4c(NCc5ccccc5)ncnc43)[C@H](OP(=O)(S)OC[C@H]3O[C@@H](n4cnc5c(NCc6ccccc6)ncnc54)[C@H](O)[C@@H]3O1)[C@@H]2O (single isomer, unassigned) [Compound D4] | – | – | – | – | 510240 | 534040 | 486440
3 | BP1(=O)OCC2O[C@@H](n3cnc4c(N)ncnc43)[C@H](F)[C@@H]2OP(=O)(S)OC[C@H]2O[C@@H](n3cnc4c(=O)[nH]c(N)nc43)[C@H](F)[C@@H]2O1 (single isomer, unassigned) [Compound C1] | 88.4 µM | 67.1 µM | 34.3 µM | 75 µM | – | – | –
4 | BP1(=O)OC[C@H]2O[C@@H](n3cnc4c(=O)[nH]c(N)nc43)[C@H](F)[C@@H]2OP(=O)(S)OCC2O[C@@H](n3cnc4c(N)ncnc43)[C@H](F)[C@@H]2O1 (single isomer, unassigned) [Compound B2] | 14.7 µM | 74.6 µM | 9.82 µM | 29.1 µM | – | – | –
5 | B[P@]1(=O)OC[C@H]2O[C@@H](n3cnc4c(N)ncnc43)[C@H](F)[C@@H]2OP(=O)(O)OC[C@H]2O[C@@H](n3cnc4c(N)ncnc43)[C@H](O1)C2F (some centres unmarked) [Compound I1] | 13.9 µM | 29 µM | 9.68 µM | 12.8 µM | – | – | –
6 | BP1(=O)OC[C@H]2O[C@@H](n3cnc4c(NCc5ccccc5)ncnc43)[C@H](OP(=O)(S)OC[C@H]3O[C@@H](n4cnc5c(NCc6ccccc6)ncnc54)[C@H](O)[C@@H]3O1)[C@@H]2O (single isomer, unassigned) [Compound D1] | – | – | – | – | 22040 | 22420 | 21660
7 | BP1(=O)OC[C@H]2O[C@@H](n3cnc4c(N)ncnc43)[C@H](F)[C@@H]2OP(=O)(S)OC[C@H]2O[C@@H](n3cnc4c(N)ncnc43)[C@H](O1)C2F (some centres unmarked) [Mixtures of H1, H2, H3, and H4] | > 100 µM | > 100 µM | 33.6 µM | 84.4 µM | – | – | –
8 | BP1(=O)OCC2O[C@@H](n3cnc4c(N)ncnc43)[C@H](F)[C@@H]2OP(=O)(O)OC[C@H]2O[C@@H](n3cnc4c(=O)[nH]c(N)nc43)[C@H](F)[C@@H]2O1 (stereo partly drawn) [Compound F2, ((2R,3R,3aR,5R,7aS,9R,10R,10aR,14aR)-2-(2-amino-6-oxo-1,6-dihydro-9H-purin-9-yl)-9-(6-amino-9H-purin-9-yl)-3,10-difluoro-12-hydroxy-5,12-dioxidooctahydro-2H,7H-difuro[3,2-d:3′,2′-j][1,3,7,9]tetraoxa[2,8]diphosphacyclododecin-5-yl)trihydroborate] | 1.56 µM | 10 µM | 1.2 µM | 2.78 µM | – | – | –
9 | B[P@]1(=O)OC[C@H]2O[C@@H](n3cnc4c(N)ncnc43)[C@H](F)[C@@H]2OP(=O)(O)OC[C@H]2O[C@@H](n3cnc4c(N)ncnc43)[C@H](O1)C2F (some centres unmarked) [Compound I2] | 6.27 µM | 34.7 µM | 5.43 µM | 11.2 µM | – | – | –
10 | BP1(=O)OCC2O[C@@H](n3cnc4c(N)ncnc43)[C@H](F)[C@@H]2OP(=O)(O)OC[C@H]2O[C@@H](n3cnc4c(=O)[nH]c(N)nc43)[C@H](F)[C@@H]2O1 (stereo partly drawn) [Compound F1, ((2R,3R,3aR,5R,7aS,9R,10R,10aR,14aR)-2-(2-amino-6-oxo-1,6-dihydro-9H-purin-9-yl)-9-(6-amino-9H-purin-9-yl)-3,10-difluoro-12-hydroxy-5,12-dioxidooctahydro-2H,7H-difuro[3,2-d:3′,2′-j][1,3,7,9]tetraoxa[2,8]diphosphacyclododecin-5-yl)trihydroborate] | 1.16 µM | 6.59 µM | 0.63 µM | 2.44 µM | – | – | –
11 | BP1(=O)OC[C@H]2O[C@@H](n3cnc4c(=O)[nH]c(N)nc43)[C@H](F)[C@@H]2OP(=O)(S)OCC2O[C@@H](n3cnc4c(N)ncnc43)[C@H](F)[C@@H]2O1 (single isomer, unassigned) [Compound B1] | 28.2 µM | > 100 µM | 11.8 µM | 37.5 µM | – | – | –

Further compounds by falling EC50 (Human STING [1]), results first:

Row | EC50 (Human STING [1]) | EC50 (Human STING [2]) | EC50 (hSTING R232 [3]) | EC50 (hSTING R232 [4]) | Structure (SMILES) | Readout Average (Human STING [5]) | Readout n = 1 (Human STING [5]) | Readout n = 2 (Human STING [5])
12 | 1.08 µM | 8.52 µM | 0.94 µM | 1.77 µM | BP1(=O)OC[C@H]2O[C@@H](n3cnc4c(=O)[nH]c(N)nc43)[C@H](F)[C@@H]2OP(=O)(O)OCC2O[C@@H](n3cnc4c(N)ncnc43)[C@H](F)[C@@H]2O1 (stereo partly drawn) [Compound G2, ((2R,3R,3aR,5R,7aR,9R,10R,10aR,14aS)-9-(2-amino-6-oxo-1,6-dihydro-9H-purin-9-yl)-2-(6-amino-9H-purin-9-yl)-3,10-difluoro-12-hydroxy-5,12-dioxidooctahydro-2H,7H-difuro[3,2-d:3′,2′-j][1,3,7,9]tetraoxa[2,8]diphosphacyclododecin-5-yl)trihydroborate] | – | – | –
13 | 0.91 µM | 5.22 µM | 0.32 µM | 2.97 µM | BP1(=O)OC[C@H]2O[C@@H](n3cnc4c(=O)[nH]c(N)nc43)[C@H](F)[C@@H]2OP(=O)(S)OCC2O[C@@H](n3cnc4c(N)ncnc43)[C@H](F)[C@@H]2O1 (single isomer, unassigned) [Compound B3] | – | – | –
14 | 0.91 µM | 7.47 µM | 0.72 µM | 2.3 µM | [BH3-][P+]1(O)OCC2OC(n3cnc4c(N)ncnc43)C(OP(=O)(O)OCC3OC(n4cnc5c(N)ncnc54)C(F)C3O1)C2F (single isomer, unassigned) [Compound K1] | – | – | –
15 | 0.63 µM | 4.3 µM | 0.41 µM | 0.92 µM | BP1(=O)OC[C@H]2O[C@@H](n3cnc4c(=O)[nH]c(N)nc43)[C@H](F)[C@@H]2OP(=O)(O)OCC2O[C@@H](n3cnc4c(N)ncnc43)[C@H](F)[C@@H]2O1 (stereo partly drawn) [Compound G1, ((2R,3R,3aR,5R,7aR,9R,10R,10aR,14aS)-9-(2-amino-6-oxo-1,6-dihydro-9H-purin-9-yl)-2-(6-amino-9H-purin-9-yl)-3,10-difluoro-12-hydroxy-5,12-dioxidooctahydro-2H,7H-difuro[3,2-d:3′,2′-j][1,3,7,9]tetraoxa[2,8]diphosphacyclododecin-5-yl)trihydroborate] | – | – | –
16 | 0.63 µM | 6.29 µM | 0.34 µM | 0.7 µM | BP1(=O)OCC2O[C@@H](n3cnc4c(N)ncnc43)[C@H](F)[C@@H]2OP(=O)(S)OC[C@H]2O[C@@H](n3cnc4c(=O)[nH]c(N)nc43)[C@H](F)[C@@H]2O1 (single isomer, unassigned) [Compound C4] | – | – | –
17 | 0.61 µM | 7.61 µM | 0.34 µM | 2.27 µM | BP1(=O)OC[C@H]2O[C@@H](n3cnc4c(=O)[nH]c(N)nc43)[C@H](F)[C@@H]2OP(=O)(S)OCC2O[C@@H](n3cnc4c(N)ncnc43)[C@H](F)[C@@H]2O1 (single isomer, unassigned) [Compound B4] | – | – | –
18 | 0.43 µM | 4.93 µM | 0.23 µM | 0.43 µM | BP1(=O)OCC2O[C@@H](n3cnc4c(N)ncnc43)[C@H](F)[C@@H]2OP(=O)(S)OC[C@H]2O[C@@H](n3cnc4c(=O)[nH]c(N)nc43)[C@H](F)[C@@H]2O1 (single isomer, unassigned) [Compound C2] | – | – | –
19 | 0.37 µM | 4.56 µM | 0.085 µM | 0.16 µM | BP1(=O)OCC2O[C@@H](n3cnc4c(N)ncnc43)[C@H](F)[C@@H]2OP(=O)(S)OC[C@H]2O[C@@H](n3cnc4c(=O)[nH]c(N)nc43)[C@H](F)[C@@H]2O1 (single isomer, unassigned) [Compound C3] | – | – | –
